Test results published in patent US20100310530A1, “Cell Therapy for Brain Tissue Damage” (StemCyte Inc., priority 2009, published 2010).

Columns and labels:
[1] = system: cerebral ischemia rats; experiment: Neurological behavioral measurements after cerebral ischemia (MCA ligation); type: in vivo, rat; settings: GM6001 ip after HP-hUCB^34 implantation, or brefeldin A-incubated HP-hUCB^34; vs vehicle control
Protocol: (§2) Experimental rats and mice were divided into three groups (FIG. 2A): Intracerebral transplantation of hUCB^34 with HP (HP-hUCB^34), intracerebral transplantation of hUCB^34 without HP (hUCB^34), and a vehicle-control group. All transplantation took place on day 7. The HP-hUCB^34 group was treated in 1% O2 hypoxic conditions for 20-24 hours. Cerebral ischemia was induced in every experimental rat on day 0. At 7 days after cerebral ischemia, experimental rats in the two intracerebral hUCB^34 transplantation groups were injected stereotaxically with approximately 2×10^5 cells of hUCB^34 labeled with bis-benzimide in a 3-5 μL PBS suspension through a 26- or 30-gauge Hamilton syringe into 3 cortical areas, 3.0 to 5.0 mm (2.0 to 3.0 mm for mice) below the dura. The approximate coordinates for these sites were 1.0 to 2.0 mm (0 to 1.0 mm for mice) anterior to the bregma and 3.5 to 4.0 mm (2.0 to 2.5 mm for mice) lateral to the midline, 0.5 to 1.5 mm (0 to 1.0 mm for mice) posterior to the bregma and 4.0 to 4.5 mm (2.0 to 3.5 mm for mice) lateral to the midline, and 3.0 to 4.0 mm (1.5 to 2.5 mm for mice) posterior to the bregma and 4.5 to 5.0 mm (2.0 to 3.0 mm for mice) lateral to the midline. The needle was retained in place for 5 minutes after each injection and a piece of bone wax was applied to the skull defects to prevent leakage of the injected solution. […]

[2] = system: ischemic rat brains; experiment: Cell engraftment and neural differentiation in ischemic brain (immunofluorescent colocalization); type: in vivo; settings: injection of GM6001 or brefeldin A-pretreatment of cells
Protocol: as §2

[3] = system: cerebral ischemic rats; experiment: Neurite regeneration in vivo in cerebral ischemic rats; design: species or system rat; settings: cells incubated with 10 μg/mL brefeldin A
Protocol: Experimental rats and mice were divided into three groups (FIG. 2A): Intracerebral transplantation of hUCB^34 with HP (HP-hUCB^34), intracerebral transplantation of hUCB^34 without HP (hUCB^34), and a vehicle-control group. All transplantation took place on day 7. The HP-hUCB^34 group was treated in 1% O2 hypoxic conditions for 20-24 hours. Cerebral ischemia was induced in every experimental rat on day 0. At 7 days after cerebral ischemia, experimental rats in the two intracerebral hUCB^34 transplantation groups were injected stereotaxically with approximately 2×10^5 cells of hUCB^34 labeled with bis-benzimide in a 3-5 μL PBS suspension through a 26- or 30-gauge Hamilton syringe into 3 cortical areas, 3.0 to 5.0 mm (2.0 to 3.0 mm for mice) below the dura. […]
Measurement of neurite regeneration was performed as described earlier (Cafferty et al., 2004, J Neurosci 24:4432-4443). […] For quantification analysis, neurons with processes greater than twice the cell body diameter were counted as neurite-bearing cells. The length of the longest neurite of each neuron was measured from digitized images and quantified using imaging analysis software (SigmaScan 4.01.003).

[4] = system: Epac1; experiment: Western blot of Epac1 in hUCB^34 cells after hypoxia preconditioning or DFX; type: cell-based, human; settings: cells treated with DFX, under either hypoxic or normoxic conditions
Protocol: (§1) hUCB^34 cells (1×10^6/mL) were cultured in a StemSpan SFEM medium (StemCell Technologies, Vancouver, Canada) at 37° C. in 5% CO2-humidified incubators in normoxic (20% O2) or hypoxic (1% O2) conditions as previously described (Ivanovic et al., 2000, Br J Haematol 108:424-429). Hypoxic cultures were cultivated in a two-gas incubator (Jouan, Winchester, Va., USA) equipped with an O2 probe to regulate N2 levels. Cell number and viability were evaluated using trypan blue exclusion assay. For flowcytometry, cells were incubated with anti-human CD34 (Miltenyi Biotec, Gladbach, Germany) and then analyzed on a FACSCalibur flow cytometer (Becton, Dickinson and Co.). To produce chemical hypoxia, cells were treated in a medium containing […] of Desferrioxamine (DFX, Sigma-Aldrich, MO) that mimics hypoxic conditions by inhibiting the hydroxylation of a prolyl residue that is essential for the ubiquitination of HIF-1α (Schioppa et al., 2003, J Exp Med 198:1391-1402). […] The intensity of each band was measured using a Kodak Digital Science 1D Image Analysis System (Eastman Kodak, Rochester, N.Y.). The ratio of band intensity of Western blots in comparison with the internal control was calculated. Results were expressed as the mean value of the ratio±SEM for preparations.

[5] = system: hypoxia-inducible factor-1α (HIF-1α); experiment: Western blot of HIF-1α in HP- and DFX-treated hUCB^34 cells; type: cell-based, human; settings: HP- and DFX-treated hUCBs^34
Protocol: as §1

Row | Compound | neurological behavior recovery after HP-hUCB^34 implantation in presence of inhibitor [1] | number of engrafted cells in HP-hUCB^34-treated rats with inhibitor [2] | neurite regeneration after transplantation of brefeldin A-incubated HP-hUCB^34 [3] | levels of Epac1 versus control cells [4] | protein level of HIF-1α [5]
1 | C[C@H]1CCC/C=C/[C@@H]2C[C@H](O)C[C@H]2[C@H](O)/C=C/C(=O)O1 [brefeldin A] | down-regulated to the same extent as that of control group | diminished | could not promote the neurite regeneration |  | 
2 | CC(=O)N(O)CCCCCNC(=O)CCC(=O)N(O)CCCCCNC(=O)CCC(=O)N(O)CCCCCN [DFX, Desferrioxamine] |  |  |  | much higher levels of Epac1 than control cells | increase in the protein level
3 | CNC(=O)[C@H](Cc1c[nH]c2ccccc12)NC(=O)[C@@H](CC(=O)NO)CC(C)C [GM6001] | almost no recovery | diminished |  |  | 
